Assay results reported in patent US6426369B1, “Oxethazaine as antimicrobial agent” (Eisai Co., Ltd., priority 1997, dated 2002).

Test system: H. pylori
Assay: Antimicrobial activity test 6: oxethazaine in combination with an antibiotic (AMPC, CAM, RXM), checker board method
Type: cell-based, Helicobacter pylori
Design: key to growth of H. pylori: “−” indicates the inhibited growth of H. pylori (presence of antimicrobial activity); “+” indicates the growth of H. pylori (absence of antimicrobial activity)
Conditions: for growth of H. pylori: oxethazaine μg/ml: 100, 50, 25, 12.5, 6.25, 3.13, 0
From the text: The effect of combined use with amoxicillin (AMPC), clarithromycin (CAM) or roxithromycin (RXM) was examined in the same manner as in antimicrobial activity test 1, using the checker board method.

[1] = combined use with oxethazaine, out of 15 strains (AMPC), 21 strains (CAM), 22 strains (RXM)

Compound: CC[C@H]1OC(=O)[C@H](C)[C@@H](O[C@H]2C[C@@](C)(OC)[C@@H](O)[C@H](C)O2)[C@H](C)[C@@H](O[C@@H]2O[C@H](C)C[C@H](N(C)C)[C@H]2O)[C@](C)(O)C[C@@H](C)/C(=N\OCOCCOC)[C@H](C)[C@@H](O)[C@]1(C)O [roxithromycin]
- additive effect, number of strains [1]: 19 strains/
- synergism, number of strains [1]: 4 strains/
- growth of H. pylori (strain EH 12, RXM 0.05 μg/ml): +
- growth of H. pylori (strain EH 12, RXM 0.1 μg/ml): +
- growth of H. pylori (strain EH 12, RXM 0.2 μg/ml): −
- growth of H. pylori (strain EH 12, RXM 0.4 μg/ml): −
- growth of H. pylori (strain EH 12, RXM 0.8 μg/ml): −
- growth of H. pylori (strain EH 12, RXM 1.56 μg/ml): −
- growth of H. pylori (strain EH 12, RXM 3.13 μg/ml): −
- growth of H. pylori (strain EH 12, RXM 6.25 μg/ml): −
- growth of H. pylori (strain EH 12, RXM 12.5 μg/ml): −
- growth of H. pylori (strain EH 12, RXM 25 μg/ml): −
- growth of H. pylori (strain EH 12, RXM 50 μg/ml): −
- growth of H. pylori (strain EH 12, RXM 100 μg/ml): −
- growth of H. pylori (strain EH 13, RXM 0.05 μg/ml): +
- growth of H. pylori (strain EH 13, RXM 0.1 μg/ml): +
- growth of H. pylori (strain EH 13, RXM 0.2 μg/ml): −
- growth of H. pylori (strain EH 13, RXM 0.4 μg/ml): −
- growth of H. pylori (strain EH 13, RXM 0.8 μg/ml): −
- growth of H. pylori (strain EH 13, RXM 1.56 μg/ml): −
- growth of H. pylori (strain EH 13, RXM 3.13 μg/ml): −
- growth of H. pylori (strain EH 13, RXM 6.25 μg/ml): −
- growth of H. pylori (strain EH 13, RXM 12.5 μg/ml): −
- growth of H. pylori (strain EH 13, RXM 25 μg/ml): −
- growth of H. pylori (strain EH 13, RXM 50 μg/ml): −
- growth of H. pylori (strain EH 13, RXM 100 μg/ml): −
- growth of H. pylori (strain NCTC11637, RXM 0.05 μg/ml): +
- growth of H. pylori (strain NCTC11637, RXM 0.1 μg/ml): +
- growth of H. pylori (strain NCTC11637, RXM 0.2 μg/ml): −
- growth of H. pylori (strain NCTC11637, RXM 0.4 μg/ml): −
- growth of H. pylori (strain NCTC11637, RXM 0.8 μg/ml): −
- growth of H. pylori (strain NCTC11637, RXM 1.56 μg/ml): −
- growth of H. pylori (strain NCTC11637, RXM 3.13 μg/ml): −
- growth of H. pylori (strain NCTC11637, RXM 6.25 μg/ml): −
- growth of H. pylori (strain NCTC11637, RXM 12.5 μg/ml): −
- growth of H. pylori (strain NCTC11637, RXM 25 μg/ml): −
- growth of H. pylori (strain NCTC11637, RXM 50 μg/ml): −
- growth of H. pylori (strain NCTC11637, RXM 100 μg/ml): −
- growth of H. pylori (strain NCTC11639, RXM 0.05 μg/ml): +
- growth of H. pylori (strain NCTC11639, RXM 0.1 μg/ml): +
- growth of H. pylori (strain NCTC11639, RXM 0.2 μg/ml): +
- growth of H. pylori (strain NCTC11639, RXM 0.4 μg/ml): +
- growth of H. pylori (strain NCTC11639, RXM 0.8 μg/ml): −
- growth of H. pylori (strain NCTC11639, RXM 1.56 μg/ml): −
- growth of H. pylori (strain NCTC11639, RXM 3.13 μg/ml): −
- growth of H. pylori (strain NCTC11639, RXM 6.25 μg/ml): −
- growth of H. pylori (strain NCTC11639, RXM 12.5 μg/ml): −
- growth of H. pylori (strain NCTC11639, RXM 25 μg/ml): −
- growth of H. pylori (strain NCTC11639, RXM 50 μg/ml): −
- growth of H. pylori (strain NCTC11639, RXM 100 μg/ml): −
